Active and inactive are the calls of the source. The rule behind the calls is not given here.
Legend:
LNCaP = experiment: Cytotoxicity against human LNCAP cells assessed as reduction in cell viability after 72 hrs by MTT assay; format: functional, cell-based
HT-1080 = experiment: Cytotoxicity against human HT1080 cells assessed as reduction in cell viability after 72 hrs by MTT assay; format: functional, cell-based; conditions: HT-1080, 72 h
KB [1] = experiment: Cytotoxicity against human KB cells assessed as reduction in cell viability after 72 hrs by MTT assay; format: functional, cell-based
[2] = target: T1, DNA topoisomerase 1 (Homo sapiens) (UniProt P11387); experiment: Inhibition of human topoisomerase-1 expressed in baculovirus infected insect cells at 80 uM using supercoiled pGEM-5Zf(+) plasmid DNA as substrate after 30 mins by agarose gel electrophoresis method
T1 sequence (whole entry): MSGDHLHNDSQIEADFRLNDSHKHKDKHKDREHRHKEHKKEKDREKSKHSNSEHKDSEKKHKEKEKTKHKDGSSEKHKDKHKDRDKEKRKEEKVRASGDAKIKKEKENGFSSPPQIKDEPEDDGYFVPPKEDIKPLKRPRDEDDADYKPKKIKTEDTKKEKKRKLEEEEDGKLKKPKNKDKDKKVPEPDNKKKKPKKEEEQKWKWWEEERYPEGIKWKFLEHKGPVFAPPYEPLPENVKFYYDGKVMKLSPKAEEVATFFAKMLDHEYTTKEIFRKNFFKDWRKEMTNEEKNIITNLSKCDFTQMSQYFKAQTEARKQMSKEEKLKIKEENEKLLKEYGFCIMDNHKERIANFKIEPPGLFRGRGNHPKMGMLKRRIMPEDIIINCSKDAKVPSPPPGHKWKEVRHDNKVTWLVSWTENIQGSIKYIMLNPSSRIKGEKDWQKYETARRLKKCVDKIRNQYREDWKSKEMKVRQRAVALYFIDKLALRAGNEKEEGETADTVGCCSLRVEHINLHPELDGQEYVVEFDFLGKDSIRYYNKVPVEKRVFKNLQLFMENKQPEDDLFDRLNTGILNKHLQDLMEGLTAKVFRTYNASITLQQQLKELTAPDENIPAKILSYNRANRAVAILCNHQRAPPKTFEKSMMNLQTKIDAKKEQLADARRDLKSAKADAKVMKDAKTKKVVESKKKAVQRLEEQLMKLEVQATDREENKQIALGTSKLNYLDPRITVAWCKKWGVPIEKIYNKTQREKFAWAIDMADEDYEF

MDA-MB-231 = experiment: Cytotoxicity against human MDA-MB-231 cells assessed as reduction in cell viability after 72 hrs by MTT assay; format: functional, cell-based; conditions: MDA-MB-231, 72 h
KB [3] = experiment: Cytotoxicity against human KB cells assessed as reduction in cell viability at 12.5 uM after 72 hrs by MTT assay; format: functional, cell-based

## COc1ccc2nc3c(cc2c1)Cn1c-3nc2ccccc21
LNCaP
  IC50: 24.7 µM
HT-1080
  IC50: 52.3 µM
KB [1]
  IC50: 20 µM
[2]
  inhibition: Active
MDA-MB-231
  IC50: > 100 µM

## Clc1cccc2cc3c(nc12)-c1nc2ccccc2n1C3
LNCaP
  IC50: 24 µM
HT-1080
  IC50: 28.7 µM
KB [1]
  IC50: 11.5 µM
MDA-MB-231
  IC50: 69 µM
KB [3]
  Activity: Active

## COc1ccc2cc3c(nc2c1)-c1nc2ccccc2n1C3
LNCaP
  IC50: 25 µM
HT-1080
  IC50: 95 µM
KB [1]
  IC50: 40.6 µM
[2]
  inhibition: Active
MDA-MB-231
  IC50: > 100 µM

## O=c1c2ccccc2nc2n1Cc1cc3ccccc3nc1-2
KB [3]
  Activity: Active

## Cc1ccc2cc3c(nc2c1)-c1nc2ccccc2n1C3
LNCaP
  IC50: 39 µM
HT-1080
  IC50: 8.7 µM
KB [1]
  IC50: 75 µM
[2]
  inhibition: Active
MDA-MB-231
  IC50: > 100 µM

## Brc1cccc2cc3c(nc12)-c1nc2ccccc2n1C3
LNCaP
  IC50: 8.4 µM
HT-1080
  IC50: 66 µM
KB [1]
  IC50: 15.3 µM
[2]
  inhibition: Active
MDA-MB-231
  IC50: 11.3 µM

## Cc1cccc2cc3c(nc12)-c1nc2ccccc2n1C3
LNCaP
  IC50: 23.8 µM
HT-1080
  IC50: > 100 µM
KB [1]
  IC50: 20 µM
[2]
  inhibition: Active
MDA-MB-231
  IC50: > 100 µM

## c1ccc2nc3c(cc2c1)Cn1c-3nc2ccccc21
LNCaP
  IC50: 11.3 µM
HT-1080
  IC50: 52.9 µM
KB [1]
  IC50: 10.9 µM
[2]
  inhibition: Active
MDA-MB-231
  IC50: 12 µM

## COc1cccc2cc3c(nc12)-c1nc2ccccc2n1C3
LNCaP
  IC50: 20 µM
HT-1080
  IC50: > 100 µM
KB [1]
  IC50: 16.9 µM
[2]
  inhibition: Active
MDA-MB-231
  IC50: > 100 µM

## Cc1ccc2nc3c(cc2c1)Cn1c-3nc2ccccc21
LNCaP
  IC50: 62.5 µM
HT-1080
  IC50: 9.3 µM
KB [1]
  IC50: 11.3 µM
[2]
  inhibition: Active
MDA-MB-231
  IC50: > 100 µM

Source: ChEMBL document CHEMBL4190294, “Design, synthesis and antiproliferative activity of decarbonyl luotonin analogues” (Eur J Med Chem, 2017)
